In patent publication US6770652B2, “Multiple acting anti-angiogenic and cytotoxic compounds and methods for using the same” (Duquesne University of the Holy Ghost, priority 2001, dated 2004):
Read-outs that look alike come from different tables or passages of the source.

Experiments:
[1] = test system: chorioallantoic membrane (CAM) of 10-day old chicken embryos; assay: CAM assay (growth factor-induced angiogenesis on chorioallantoic membrane); assay type: in vivo; details: for IC50: Gallus gallus, read-out: CAM angiogenesis Inhibition, apparent IC50
Method: Human VEGF-165 and BFGF (200 ng each) were added to saturation to a microbial testing disk and placed onto the chorioallantoic membrane (CAM) of 10-day old chicken embryos. Eight hours after the growth factor treatment, unknown compounds (100 μg) were added to the same microbial testing disk. Growth factors and embryos were allowed to incubate an additional 40 hours. CAMS were removed, paraformaldehyde (4% in PBS) fixed, placed onto Petri dishes, and digital images taken at 7.5× using a dissecting microscope. A 1×1-cm grid was then added to the digital CAM images and the number of vessels within each grid counted as a measure of vascularity. […] Data were then graphed (FIG. 1) as a percent of growth factor-induced blood vessel amounts.

Flk-1 = Flk-1 (Homo sapiens, UniProt P35968); assay: Phospho-Flk1 phosphotyrosine ELISA (cytoblot) on whole U251 glioblastoma cells; Flk1 kinase inhibition; assay type: cell-based
Method: Reactions were stopped by the aspiration of media and the addition of phosphate buffered saline (PBS) containing 0.05% triton X-100, protease inhibitor cocktail and phosphatase inhibitor cocktail 2 (Sigma Chemical company) for 10 minutes on ice. Cells were then fixed at 60° C. for 30 minutes and then cold methanol added to the cells for five minutes to further permeabilize them for antibody penetration. Cells were blocked for one hour with 1% bovine serum albumin in PBS, washed twice in PBS, and then anti-phosphotyrosine-HRP conjugate (Oncogene Research) added at 1:250 dilution overnight. The antibody was then removed, the cells washed three times in PBS with 1% BSA and once with PBS, and luminol-peroxide reagent added (Pierce Biochemical) for 5 minutes. […] Data are graphed as a percentage of growth factor (EGF, VEGF) treated controls.

U251 cytotoxicity = assay type: cell-based; details: human, U251 cells; Table 4; read-out: U251 cytotoxicity Inhibition, apparent IC50
Flt-1 = Flt-1 (Homo sapiens, UniProt P17948); assay: Flt-1 kinase inhibition; assay type: cell-based; details: Table 4; read-out: Flt-1 kinase Inhibition, apparent IC50
[2] = Table 2, read-out: FIK1 Kinase Inhibition IC50
[3] = Table 4, U251 cells overexpress Flk1, read-out: Flk-1 kinase Inhibition, apparent IC50

Chain of Flk-1 (P35968 20-1356): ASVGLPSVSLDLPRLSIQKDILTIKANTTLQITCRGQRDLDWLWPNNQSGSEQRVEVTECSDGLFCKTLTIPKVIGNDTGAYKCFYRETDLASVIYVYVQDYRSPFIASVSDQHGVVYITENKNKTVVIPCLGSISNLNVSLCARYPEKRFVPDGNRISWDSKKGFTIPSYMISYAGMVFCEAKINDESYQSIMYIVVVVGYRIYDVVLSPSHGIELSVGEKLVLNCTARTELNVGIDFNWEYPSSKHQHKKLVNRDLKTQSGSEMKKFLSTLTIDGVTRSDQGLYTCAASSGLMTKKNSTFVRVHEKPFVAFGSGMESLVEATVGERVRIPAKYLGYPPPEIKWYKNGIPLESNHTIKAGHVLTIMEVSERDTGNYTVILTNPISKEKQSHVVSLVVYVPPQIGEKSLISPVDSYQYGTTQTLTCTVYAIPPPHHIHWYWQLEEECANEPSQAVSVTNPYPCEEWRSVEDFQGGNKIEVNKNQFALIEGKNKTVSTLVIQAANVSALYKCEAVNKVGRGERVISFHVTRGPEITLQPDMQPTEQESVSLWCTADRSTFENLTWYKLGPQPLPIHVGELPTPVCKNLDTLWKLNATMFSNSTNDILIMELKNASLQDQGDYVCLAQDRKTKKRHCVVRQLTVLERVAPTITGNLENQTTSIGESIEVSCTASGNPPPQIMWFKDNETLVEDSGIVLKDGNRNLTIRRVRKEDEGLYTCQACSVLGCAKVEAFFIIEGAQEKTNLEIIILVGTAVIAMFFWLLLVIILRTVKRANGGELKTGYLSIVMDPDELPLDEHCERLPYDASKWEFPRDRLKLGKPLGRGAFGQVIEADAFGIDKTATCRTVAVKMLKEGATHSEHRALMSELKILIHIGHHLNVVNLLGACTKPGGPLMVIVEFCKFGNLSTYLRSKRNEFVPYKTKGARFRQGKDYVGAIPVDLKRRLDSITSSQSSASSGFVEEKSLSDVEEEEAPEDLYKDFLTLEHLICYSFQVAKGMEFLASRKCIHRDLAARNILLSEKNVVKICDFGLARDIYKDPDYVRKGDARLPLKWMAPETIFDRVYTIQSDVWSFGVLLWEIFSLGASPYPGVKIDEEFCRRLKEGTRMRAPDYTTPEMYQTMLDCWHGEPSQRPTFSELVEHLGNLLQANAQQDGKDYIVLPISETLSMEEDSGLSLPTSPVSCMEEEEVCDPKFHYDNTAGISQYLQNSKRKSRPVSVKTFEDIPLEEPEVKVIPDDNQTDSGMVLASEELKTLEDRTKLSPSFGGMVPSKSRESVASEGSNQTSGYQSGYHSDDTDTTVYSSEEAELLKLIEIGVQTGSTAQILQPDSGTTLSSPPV
Chain of Flt-1 (P17948 27-1338, species assumed): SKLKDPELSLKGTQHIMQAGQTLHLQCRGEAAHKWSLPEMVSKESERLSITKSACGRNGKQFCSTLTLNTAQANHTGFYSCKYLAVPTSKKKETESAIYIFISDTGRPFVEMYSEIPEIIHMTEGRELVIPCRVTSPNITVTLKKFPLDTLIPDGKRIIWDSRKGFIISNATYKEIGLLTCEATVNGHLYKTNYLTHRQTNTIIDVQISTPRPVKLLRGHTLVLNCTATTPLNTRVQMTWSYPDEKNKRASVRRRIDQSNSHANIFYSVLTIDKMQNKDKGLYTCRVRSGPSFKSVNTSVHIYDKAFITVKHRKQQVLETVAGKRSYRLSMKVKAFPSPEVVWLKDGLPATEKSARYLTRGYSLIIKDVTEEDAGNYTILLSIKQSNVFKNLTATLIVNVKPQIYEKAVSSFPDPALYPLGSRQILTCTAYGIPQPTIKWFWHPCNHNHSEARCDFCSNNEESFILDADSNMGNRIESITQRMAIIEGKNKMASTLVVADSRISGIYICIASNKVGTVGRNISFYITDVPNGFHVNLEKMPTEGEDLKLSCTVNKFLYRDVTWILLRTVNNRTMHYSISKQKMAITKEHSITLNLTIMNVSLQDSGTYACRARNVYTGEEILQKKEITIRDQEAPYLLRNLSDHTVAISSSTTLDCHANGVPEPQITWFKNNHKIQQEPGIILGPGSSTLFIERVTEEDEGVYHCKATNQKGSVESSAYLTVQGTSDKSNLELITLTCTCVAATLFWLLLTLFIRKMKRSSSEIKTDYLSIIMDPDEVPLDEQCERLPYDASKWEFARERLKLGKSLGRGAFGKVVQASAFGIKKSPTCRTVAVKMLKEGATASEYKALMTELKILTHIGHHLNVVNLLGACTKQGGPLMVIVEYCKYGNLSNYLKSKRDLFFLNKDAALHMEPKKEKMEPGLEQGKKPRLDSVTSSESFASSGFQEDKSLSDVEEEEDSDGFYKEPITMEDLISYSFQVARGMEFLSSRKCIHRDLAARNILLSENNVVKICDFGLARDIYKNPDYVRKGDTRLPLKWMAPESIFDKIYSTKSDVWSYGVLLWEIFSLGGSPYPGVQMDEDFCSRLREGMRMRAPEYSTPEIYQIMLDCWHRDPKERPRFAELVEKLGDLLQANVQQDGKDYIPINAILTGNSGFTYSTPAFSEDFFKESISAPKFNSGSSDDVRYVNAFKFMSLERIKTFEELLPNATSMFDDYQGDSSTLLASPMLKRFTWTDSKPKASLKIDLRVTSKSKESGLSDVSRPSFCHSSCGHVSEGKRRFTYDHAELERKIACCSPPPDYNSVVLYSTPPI

COc1cc(Cc2cc3c(Nc4cccc(Br)c4)nc(N)nc3[nH]2)cc(OC)c1OC [YJ/AG 177]
IC50 [1]: 400 nM

Nc1nc(Nc2cccc(Br)c2)c2cc(Cc3ccc4ccccc4c3)[nH]c2n1 [YJ/AG 146]
IC50 [1]: 8900 nM
IC50 (Flk-1; [2]): > 50000 nM
IC50 (Flk-1; [3]): > 50000 nM

Cc1ccccc1Cc1cc2c(Nc3cccc(Br)c3)nc(N)nc2[nH]1 [YJ/AG 168]
IC50 (U251 cytotoxicity): 5000 nM
IC50 (Flt-1): > 50000 nM
IC50 [1]: 1200 nM
IC50 (Flk-1; [2]): 300 nM

Nc1nc(Nc2cccc(Br)c2)c2cc(Cc3ccc(-c4ccccc4)cc3)[nH]c2n1 [YJ/AG 154]
IC50 [1]: < 100 nM

Nc1nc(Nc2cccc(Br)c2)c2cc(Cc3ccccc3Cl)[nH]c2n1 [YJ/AG 145]
IC50 [1]: 1700 nM

Nc1nc(Nc2cccc(Br)c2)c2cc(Cc3ccc(Cl)cc3Cl)[nH]c2n1 [YJ/AG 176]
IC50 [1]: 10800 nM

Nc1nc(Nc2cccc(Br)c2)c2cc(Cc3ccccc3)[nH]c2n1 [YJ/AG 156]
IC50 (U251 cytotoxicity): 3400 nM
IC50 [1]: < 100 nM

Nc1nc(Nc2cccc(Br)c2)c2cc(Cc3cccc4ccccc34)[nH]c2n1 [YJ/AG 158]
IC50 [1]: < 100 nM

Cc1cc(C)c(/C=C2\C(=O)Nc3ccccc32)[nH]1 [SU5416, reference compound]
IC50 (U251 cytotoxicity): 200 nM
IC50 [1]: < 100 nM

COc1ccc(OC)c(Cc2cc3c(Nc4cccc(Br)c4)nc(N)nc3[nH]2)c1 [YJ/AG 178]
IC50 [1]: 1300 nM
IC50 (Flk-1; [2]): 600 nM
IC50 (Flk-1; [3]): 600 nM

Nc1nc(Nc2cccc(Br)c2)c2cc(Cc3ccc(Cl)c(Cl)c3)[nH]c2n1 [YJ/AG 148]
IC50 [1]: < 100 nM
Toxicity remark in CAM angiogenesis column ([1]; Table 4, remark under the CAM value): (toxic)
